According to paper PMC8300687, “A Fine-Tuned Lipophilicity/Hydrophilicity Ratio Governs Antibacterial Potency and Selectivity of Bifurcated Halogen Bond-Forming NBTIs” (Antibiotics, 2021):
≈ marks a conversion by molar mass, not a printed value. Like-named read-outs stand apart in the source and are kept apart here.

Tests used:
S. aureus (ATCC 29213) = assay: MIC broth microdilution, S. aureus ATCC 29213; type: cell-based
Method: (§1) Antimicrobial testing was carried out by the broth microdilution method in 96-well plate format following the Clinical and Laboratory Standards Institute (CLSI) guidelines and European Committee on Antimicrobial Susceptibility Testing (EUCAST) recommendations. Bacterial suspension of specific bacterial strain equivalent to 0.5 McFarland turbidity standard was diluted with cation-adjusted Mueller Hinton broth with TES (Thermo Fisher Diagnostic, Landsmeer, The Netherlands), to obtain a final inoculum of 10^5 CFU/mL. Compounds dissolved in DMSO and inoculum were mixed together and incubated for 18–20 h at 35 °C. Suspensions of Mycobacterium sp. were prepared into a tube of Middelbrook 7H9 broth supplemented with 5% OADC (Thermo Scientific, Trek Diagnostic Systems, West Sussex, UK) and incubated for at least 10 days. After incubation the minimal inhibitory concentration (MIC) values were determined by visual inspection as the lowest dilution of compounds showing no turbidity. Tetracycline was used as a positive control on every assay plate.

E. coli (QA-11.7) = assay: MIC broth microdilution, E. coli QA-11.7; type: cell-based; conditions: Escherichia coli, 20 h, read-out: MIC E. coli (QA-11.7)
Method: as §1

E. coli (ATCC 25922) = assay: MIC broth microdilution, E. coli ATCC 25922; type: cell-based
Method: as §1

MRSA (QA-11.4) = assay: MIC broth microdilution, MRSA QA-11.4; type: cell-based, methicillin-resistant S. aureus; conditions: Staphylococcus aureus, 20 h, read-out: MIC MRSA (QA-11.4)
Method: as §1

E. coli Topo IV = molecular target: T1, E. coli Topo IV (Escherichia coli, UniProt P0AFI2); assay: Topo IV Relaxation High Throughput Plate assay, E. coli; type: biochemical; conditions: for LE Topo IV E. coli: LE = (1.37/HA) × pIC50
T1 construct: purchased Inspiralis (Norwich, UK)
T1 sequence (P0AFI2 whole entry): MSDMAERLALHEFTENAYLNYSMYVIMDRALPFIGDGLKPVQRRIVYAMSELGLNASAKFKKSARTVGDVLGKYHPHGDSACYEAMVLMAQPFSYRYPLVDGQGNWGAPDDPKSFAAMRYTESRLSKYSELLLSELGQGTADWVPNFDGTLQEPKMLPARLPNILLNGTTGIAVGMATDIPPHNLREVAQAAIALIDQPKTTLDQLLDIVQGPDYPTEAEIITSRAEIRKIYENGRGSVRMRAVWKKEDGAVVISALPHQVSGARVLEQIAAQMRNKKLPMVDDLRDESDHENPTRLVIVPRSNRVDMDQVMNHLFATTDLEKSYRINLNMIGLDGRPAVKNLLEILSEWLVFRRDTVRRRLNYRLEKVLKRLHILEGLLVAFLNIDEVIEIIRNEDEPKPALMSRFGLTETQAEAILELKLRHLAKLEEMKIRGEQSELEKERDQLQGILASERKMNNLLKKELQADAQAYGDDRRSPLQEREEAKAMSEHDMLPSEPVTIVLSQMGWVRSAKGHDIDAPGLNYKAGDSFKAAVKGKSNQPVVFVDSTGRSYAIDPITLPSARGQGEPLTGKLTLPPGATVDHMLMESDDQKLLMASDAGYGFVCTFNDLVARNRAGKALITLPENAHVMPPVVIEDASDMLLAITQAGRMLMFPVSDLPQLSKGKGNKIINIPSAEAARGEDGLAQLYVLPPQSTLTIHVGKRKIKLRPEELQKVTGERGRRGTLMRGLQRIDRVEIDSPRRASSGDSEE
T1 sequence (P20083 whole entry, further chain): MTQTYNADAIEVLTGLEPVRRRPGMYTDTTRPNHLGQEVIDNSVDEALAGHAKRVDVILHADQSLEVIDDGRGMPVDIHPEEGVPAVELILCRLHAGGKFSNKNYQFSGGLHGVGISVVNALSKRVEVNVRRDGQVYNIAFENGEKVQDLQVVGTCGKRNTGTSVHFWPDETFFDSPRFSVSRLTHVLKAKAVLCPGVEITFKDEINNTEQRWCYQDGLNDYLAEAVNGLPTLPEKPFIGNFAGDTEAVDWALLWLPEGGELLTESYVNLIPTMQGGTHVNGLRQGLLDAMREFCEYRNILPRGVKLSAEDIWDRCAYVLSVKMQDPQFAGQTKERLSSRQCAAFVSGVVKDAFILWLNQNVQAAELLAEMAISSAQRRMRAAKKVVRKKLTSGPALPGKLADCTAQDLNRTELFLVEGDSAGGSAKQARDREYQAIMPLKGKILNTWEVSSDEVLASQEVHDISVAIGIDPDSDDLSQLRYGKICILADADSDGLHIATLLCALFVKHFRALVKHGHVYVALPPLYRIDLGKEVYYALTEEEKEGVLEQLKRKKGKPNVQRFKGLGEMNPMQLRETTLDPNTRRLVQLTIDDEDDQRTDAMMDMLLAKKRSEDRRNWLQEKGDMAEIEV
Method: (§2) A Topo IV Relaxation High Throughput Plate assay kit, purchased from Inspiralis (Norwich. UK) was used to determine IC50 values of compounds on S. aureus and E. coli. […] Biotinylated oligonucleotide in wash buffer was immobilized onto the wells, and the excess oligonucleotide was washed off with wash buffer and ultrapure water. 1.5 U of S. aureus or E. coli […] enzyme was incubated together with 0.75 μg of supercoiled pNO1 plasmid as a substrate in the presence of 3 μL inhibitor solution in 10% DMSO and 0.008% Tween 20 at 37 °C for 30 min in a final reaction volume of 30 μL in dilution buffer (50 mM Tris-HCl (pH 7.5), 1 mM DTT, 1 mM EDTA, 40% (w/v) glycerol for S. aureus and 40 mM HEPES, KOH (pH 7.6), 100 mM potassium glutamate, 1 mM DTT, 1 mM EDTA, and 40% (v/v) glycerol for E. coli). The reactions were stopped by adding the TF buffer (50 mM NaOAc (pH 4.7), 50 mM NaCl, and 50 mM MgCl2) to allow the triplex formation (biotin-oligonucleotide-plasmid) for additional 30 min. Afterward, the unbound plasmid was washed off using TF buffer, and the solution of Promega Diamond dye in T10 buffer (10 mM Tris-HCl (pH 8.0), 1 mM EDTA) was added. […] IC50 value represents the mean of two to four independent measurements.

E. coli (QA-11.8) = assay: MIC broth microdilution, E. coli QA-11.8; type: cell-based
Method: as §1

Human topoisomerase IIα = molecular target: T2, Human topoisomerase IIα (Homo sapiens, UniProt P11388); assay: Human topoisomerase II Alpha Relaxation High Throughput Plate assay; type: biochemical; conditions: 0.5 h; residual activity of the enzyme at compound concentration 10 μM, mean ± SD; read-out: Human Topo II (% RA)
T2 construct: purchased Inspiralis (Norwich, UK)
T2 sequence (P11388 whole entry): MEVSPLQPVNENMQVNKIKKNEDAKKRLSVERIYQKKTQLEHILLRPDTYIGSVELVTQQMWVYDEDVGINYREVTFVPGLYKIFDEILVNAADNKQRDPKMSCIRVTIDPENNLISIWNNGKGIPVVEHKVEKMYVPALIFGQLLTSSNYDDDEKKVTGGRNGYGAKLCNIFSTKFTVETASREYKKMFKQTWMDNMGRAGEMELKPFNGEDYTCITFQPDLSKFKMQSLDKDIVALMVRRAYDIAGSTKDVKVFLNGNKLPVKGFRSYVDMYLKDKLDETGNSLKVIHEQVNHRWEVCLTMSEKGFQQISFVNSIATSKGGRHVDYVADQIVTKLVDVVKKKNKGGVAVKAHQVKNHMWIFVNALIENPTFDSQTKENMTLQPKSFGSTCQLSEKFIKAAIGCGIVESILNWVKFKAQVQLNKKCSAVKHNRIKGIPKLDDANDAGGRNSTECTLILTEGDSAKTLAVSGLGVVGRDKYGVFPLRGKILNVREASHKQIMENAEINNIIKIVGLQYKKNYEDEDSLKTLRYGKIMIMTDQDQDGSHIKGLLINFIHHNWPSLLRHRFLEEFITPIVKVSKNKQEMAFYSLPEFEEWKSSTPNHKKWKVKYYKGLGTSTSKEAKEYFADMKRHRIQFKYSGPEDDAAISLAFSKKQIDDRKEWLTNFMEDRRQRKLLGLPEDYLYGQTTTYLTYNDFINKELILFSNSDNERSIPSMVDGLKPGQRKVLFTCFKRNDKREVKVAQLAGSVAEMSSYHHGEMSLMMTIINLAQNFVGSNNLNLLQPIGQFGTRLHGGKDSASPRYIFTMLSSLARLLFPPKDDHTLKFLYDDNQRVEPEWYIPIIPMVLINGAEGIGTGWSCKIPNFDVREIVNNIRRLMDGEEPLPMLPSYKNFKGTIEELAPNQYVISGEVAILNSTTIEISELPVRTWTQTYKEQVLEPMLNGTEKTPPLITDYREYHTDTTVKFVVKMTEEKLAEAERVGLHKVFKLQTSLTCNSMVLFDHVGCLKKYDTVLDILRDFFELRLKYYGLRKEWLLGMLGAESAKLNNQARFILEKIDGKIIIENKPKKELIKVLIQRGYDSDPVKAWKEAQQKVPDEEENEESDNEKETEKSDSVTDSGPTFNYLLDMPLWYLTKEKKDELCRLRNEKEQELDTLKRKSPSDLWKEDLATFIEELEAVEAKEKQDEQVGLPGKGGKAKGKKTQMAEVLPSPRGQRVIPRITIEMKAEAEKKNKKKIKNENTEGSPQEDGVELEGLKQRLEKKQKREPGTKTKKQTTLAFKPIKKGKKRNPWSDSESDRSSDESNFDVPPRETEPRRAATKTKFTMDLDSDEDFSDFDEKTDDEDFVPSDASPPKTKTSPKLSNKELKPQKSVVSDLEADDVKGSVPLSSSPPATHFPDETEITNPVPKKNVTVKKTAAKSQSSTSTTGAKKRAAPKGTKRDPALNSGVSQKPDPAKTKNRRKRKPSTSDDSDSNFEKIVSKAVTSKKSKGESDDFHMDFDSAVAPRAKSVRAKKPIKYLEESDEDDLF
Method: A Human topoisomerase II Alpha Relaxation High Throughput Plate assay kit, purchased from Inspiralis (Norwich, UK) was used to evaluate the selectivity of compounds for the bacterial enzymes over the homologous human topoisomerase II. […] Biotinylated oligonucleotide in wash buffer was immobilized onto the wells and the excess oligonucleotide was washed off with wash buffer. […] The reactions were stopped by adding the TF buffer (50 mM NaOAc (pH 4.7), 50 mM NaCl, and 50 mM MgCl2) to allow the triplex formation (biotin-oligonucleotide-plasmid) for additional 30 min. Afterward, the unbound plasmid was washed off using TF buffer, and the solution of Promega Diamond dye in T10 buffer (10 mM Tris-HCl (pH 8.0), 1 mM EDTA) was added. […] Screening was performed at inhibitor concentrations of 10 μM. Raw data were converted to mean ± SD percentage of residual activity of the enzyme obtained by two independent measurements.

S. aureus Topo IV = molecular target: T3, S. aureus Topo IV (Staphylococcus aureus, UniProt Q2FYS4); assay: biochemical; conditions: mean of two to four measurements; read-out: Topoisomerase IV IC50 S. aureus
T3 construct: purchased Inspiralis (Norwich, UK)
T3 sequence (Q2FYS5 whole entry): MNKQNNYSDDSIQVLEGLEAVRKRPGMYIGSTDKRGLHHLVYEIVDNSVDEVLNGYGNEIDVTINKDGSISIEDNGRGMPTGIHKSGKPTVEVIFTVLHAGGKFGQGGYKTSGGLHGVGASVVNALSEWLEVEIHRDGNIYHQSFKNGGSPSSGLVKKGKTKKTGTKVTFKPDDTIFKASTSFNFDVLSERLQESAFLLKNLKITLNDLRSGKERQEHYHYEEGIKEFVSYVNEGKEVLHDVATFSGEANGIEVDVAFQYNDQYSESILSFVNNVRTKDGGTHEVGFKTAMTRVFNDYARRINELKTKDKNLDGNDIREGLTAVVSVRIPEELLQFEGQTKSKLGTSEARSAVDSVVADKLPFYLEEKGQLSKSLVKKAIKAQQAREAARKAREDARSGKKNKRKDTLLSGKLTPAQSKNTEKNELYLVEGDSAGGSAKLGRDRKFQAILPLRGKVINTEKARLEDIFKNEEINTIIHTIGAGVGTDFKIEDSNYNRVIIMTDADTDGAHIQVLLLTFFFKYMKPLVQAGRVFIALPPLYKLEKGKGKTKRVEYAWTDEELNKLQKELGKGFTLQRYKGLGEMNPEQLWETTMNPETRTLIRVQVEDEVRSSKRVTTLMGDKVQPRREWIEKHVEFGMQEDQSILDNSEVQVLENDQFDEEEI
T3 sequence (Q2FYS4 whole entry): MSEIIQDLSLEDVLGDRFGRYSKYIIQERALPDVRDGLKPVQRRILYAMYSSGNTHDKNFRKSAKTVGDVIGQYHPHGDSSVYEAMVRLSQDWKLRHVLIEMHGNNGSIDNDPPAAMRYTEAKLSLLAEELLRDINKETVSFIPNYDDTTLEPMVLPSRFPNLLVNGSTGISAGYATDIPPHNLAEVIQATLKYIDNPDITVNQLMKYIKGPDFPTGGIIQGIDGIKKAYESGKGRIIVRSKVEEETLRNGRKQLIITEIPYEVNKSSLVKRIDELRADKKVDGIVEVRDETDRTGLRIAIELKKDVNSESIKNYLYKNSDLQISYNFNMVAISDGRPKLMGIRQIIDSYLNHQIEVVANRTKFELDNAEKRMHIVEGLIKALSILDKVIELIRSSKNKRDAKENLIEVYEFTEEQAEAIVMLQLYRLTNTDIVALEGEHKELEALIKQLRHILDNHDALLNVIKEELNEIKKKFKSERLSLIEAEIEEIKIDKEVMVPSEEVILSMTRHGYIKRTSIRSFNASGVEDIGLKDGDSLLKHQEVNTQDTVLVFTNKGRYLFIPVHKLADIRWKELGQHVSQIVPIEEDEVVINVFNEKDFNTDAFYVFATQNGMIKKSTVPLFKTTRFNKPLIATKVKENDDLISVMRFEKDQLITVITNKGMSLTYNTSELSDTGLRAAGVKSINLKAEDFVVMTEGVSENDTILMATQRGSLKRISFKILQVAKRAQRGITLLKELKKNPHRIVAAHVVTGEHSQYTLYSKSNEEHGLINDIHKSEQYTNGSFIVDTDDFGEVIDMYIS
Method: as §2

MRSA (QA-11.2) = assay: MIC broth microdilution, MRSA QA-11.2; type: cell-based, methicillin-resistant S. aureus; conditions: Staphylococcus aureus, 20 h, read-out: MIC MRSA (QA-11.2)
Method: as §1

[1] = Staphylococcus aureus, ATCC29213, read-out: MIC S. aureus (ATCC 29213)
[2] = Staphylococcus aureus, ATCC29213; S. aureus ATCC 29213; read-out: S. aureus MIC (converted)
[3] = Escherichia coli, ATCC25922, 20 h; E. coli ATCC 25922; read-out: E. coli MIC (converted)
[4] = Staphylococcus aureus, ATCC29213; read-out: MIC S. aureus (ATCC 29213)
[5] = multi-resistant isolate (ampicillin, azithromycin, cefotaxime, ertapenem, imipenem and others)
[6] = Escherichia coli, ATCC25922; E. coli ATCC 25922; read-out: E. coli MIC (converted)
[7] = Escherichia coli, ATCC25922; read-out: MIC E. coli (ATCC 25922)
[8] = Escherichia coli, 20 h; read-out: MIC E. coli (QA-11.8)
[9] = resistant to cefoxitin, chloramphenicol, clindamycin, linezolid, tetracycline, thiamulin, trimethoprim
[10] = mean of two to four measurements, read-out: Topoisomerase IV IC50 E. coli

COc1ccc2nccc(CCN3CCC(NC(=O)c4cn5cccc(C#N)c5n4)CC3)c2n1 [Compound 7, 8-Cyano-N-(1-(2-(6-methoxy-1,5-naphthyridin-4-yl)ethyl)piperidin-4-yl)imidazo[1,2-a]pyridine-2-carboxamide]
MIC (S. aureus (ATCC 29213); [1]): > 128 µg/mL
MIC (S. aureus (ATCC 29213); [2]): 281 µM
MIC (E. coli (QA-11.7)): > 128 µg/mL
MIC (E. coli (ATCC 25922); [3]): 281 µM
MIC (E. coli (ATCC 25922); Escherichia coli, ATCC25922, read-out: MIC E. coli (ATCC 25922)): > 128 µg/mL
MIC (MRSA (QA-11.4)): > 128 µg/mL
IC50 (E. coli Topo IV): > 100000 nM
MIC (E. coli (QA-11.8); Escherichia coli, 20 h, read-out: MIC E. coli (QA-11.8)): > 128 µg/mL
remaining activity at 10 µM (Human topoisomerase IIα): 90.3 ± 7.56%
IC50 (S. aureus Topo IV): > 100 µM
MIC (MRSA (QA-11.2)): > 128 µg/mL

COc1ccc2nccc(CCN3CCC(NCc4ccccc4)CC3)c2n1 [Compound 11]
MIC (S. aureus (ATCC 29213); [2]): 10.6 µM
MIC (S. aureus (ATCC 29213); [4]): 4 µg/mL
MIC (E. coli (QA-11.7); [5]): 32 µg/mL (≈ 85 µM)
MIC (E. coli (ATCC 25922); [6]): 170 µM
MIC (E. coli (ATCC 25922); [7]): 64 µg/mL
MIC (MRSA (QA-11.4); resistant to cefoxitin): 8 µg/mL (≈ 21.2 µM)
IC50 (E. coli Topo IV): 2040 ± 200 nM
LE Topo IV E. coli (E. coli Topo IV): 0.28
MIC (E. coli (QA-11.8); [8]): 64 µg/mL (≈ 170 µM)
remaining activity at 10 µM (Human topoisomerase IIα): 97 ± 9.58%
IC50 (S. aureus Topo IV): > 100 µM
MIC (MRSA (QA-11.2); [9]): 8 µg/mL (≈ 21.2 µM)

COc1ccc2nccc(CCN3CCC(NCc4ccc(F)cc4)CC3)c2n1 [Compound 12]
MIC (S. aureus (ATCC 29213); [2]): 2.54 µM
MIC (S. aureus (ATCC 29213); [4]): 1 µg/mL
MIC (E. coli (QA-11.7); [5]): 8 µg/mL (≈ 20.3 µM)
MIC (E. coli (ATCC 25922); [6]): 81.1 µM
MIC (E. coli (ATCC 25922); [7]): 32 µg/mL
MIC (MRSA (QA-11.4); resistant to cefoxitin): 4 µg/mL (≈ 10.1 µM)
IC50 (E. coli Topo IV): 280 ± 30 nM
LE Topo IV E. coli (E. coli Topo IV): 0.31
MIC (E. coli (QA-11.8); [8]): 16 µg/mL (≈ 40.6 µM)
remaining activity at 10 µM (Human topoisomerase IIα): 101 ± 11.2%
IC50 (S. aureus Topo IV): > 100 µM
MIC (MRSA (QA-11.2); [9]): 4 µg/mL (≈ 10.1 µM)

COc1ccc2nccc(CCN3CCC(NCc4ccc(Cl)cc4)CC3)c2n1 [Compound 13]
MIC (S. aureus (ATCC 29213); [1]): 0.125 µg/mL
MIC (S. aureus (ATCC 29213); [2]): 0.3 µM
MIC (E. coli (QA-11.7); [5]): 1 µg/mL (≈ 2.43 µM)
MIC (E. coli (ATCC 25922); [6]): 9.73 µM
MIC (E. coli (ATCC 25922); [7]): 4 µg/mL
MIC (MRSA (QA-11.4); resistant to cefoxitin): 0.5 µg/mL (≈ 1.22 µM)
IC50 (E. coli Topo IV; [10]): 31 nM
MIC (E. coli (QA-11.8); [8]): 2 µg/mL (≈ 4.87 µM)
remaining activity at 10 µM (Human topoisomerase IIα): 102 ± 0.84%
MIC (MRSA (QA-11.2); [9]): 0.25 µg/mL (≈ 0.608 µM)

COc1ccc2nccc(CCN3CCC(NCc4ccc(Br)cc4)CC3)c2n1 [Compound 14]
MIC (S. aureus (ATCC 29213); [2]): 0.07 µM
MIC (S. aureus (ATCC 29213); [4]): 0.031 µg/mL
MIC (E. coli (QA-11.7); [5]): 1 µg/mL (≈ 2.2 µM)
MIC (E. coli (ATCC 25922); [6]): 4.39 µM
MIC (E. coli (ATCC 25922); [7]): 2 µg/mL
MIC (MRSA (QA-11.4)): 0.125 µg/mL (≈ 0.274 µM)
IC50 (E. coli Topo IV; [10]): 42 ± 3 nM
MIC (E. coli (QA-11.8); [8]): 1 µg/mL (≈ 2.2 µM)
remaining activity at 10 µM (Human topoisomerase IIα): 98.2 ± 2.72%
MIC (MRSA (QA-11.2)): 0.125 µg/mL (≈ 0.274 µM)

COc1ccc2nccc(CCN3CCC(NCc4ccc(C(N)=O)cc4)CC3)c2n1 [Compound 17]
MIC (S. aureus (ATCC 29213); [2]): 4.77 µM
MIC (S. aureus (ATCC 29213); [4]): 2 µg/mL
MIC (E. coli (QA-11.7); [5]): 128 µg/mL (≈ 305 µM)
MIC (E. coli (ATCC 25922); [3]): 305 µM
MIC (E. coli (ATCC 25922); [7]): > 128 µg/mL
MIC (MRSA (QA-11.4); resistant to cefoxitin): 8 µg/mL (≈ 19.1 µM)
IC50 (E. coli Topo IV): 1150 ± 30 nM
LE Topo IV E. coli (E. coli Topo IV): 0.26
MIC (E. coli (QA-11.8); [8]): > 128 µg/mL
remaining activity at 10 µM (Human topoisomerase IIα): 97.8 ± 2.21%
IC50 (S. aureus Topo IV): > 100 µM
MIC (MRSA (QA-11.2); [9]): 8 µg/mL (≈ 19.1 µM)

COc1ccc2nccc(CCN3CCC(NCc4ccc(N(C)C)cc4)CC3)c2n1 [Compound 18]
MIC (S. aureus (ATCC 29213); [2]): 0.31 µM
MIC (E. coli (QA-11.7); [5]): 4 µg/mL (≈ 9.53 µM)
MIC (E. coli (ATCC 25922); [6]): 78.5 µM
MIC (E. coli (ATCC 25922); [7]): 32 µg/mL
MIC (MRSA (QA-11.4); resistant to cefoxitin): 0.5 µg/mL (≈ 1.19 µM)
IC50 (E. coli Topo IV): > 100000 nM
MIC (E. coli (QA-11.8); [8]): 8 µg/mL (≈ 19.1 µM)
remaining activity at 10 µM (Human topoisomerase IIα): 94.2 ± 1.33%
IC50 (S. aureus Topo IV): > 100 µM
MIC (MRSA (QA-11.2); [9]): 0.5 µg/mL (≈ 1.19 µM)
